Results on eleven compounds are retold here after patent publication US20130244929A1 (priority 2010, published 2013).

For orientation: MIC means the lowest concentration that inhibits growth of the organism. The term IC50 denotes the midpoint of a concentration-inhibition curve.

One assay has as its system MB 5393 (COL), a methicillin-resistant S. aureus strain. The experiment in a line: Determination of minimum and synergistic inhibitory concentration. To be noted: MRSA COL, presence of imipenem (4 μg/mL), 22 hours. In kind it is cell-based. The method, then:
MB 5393 (COL), a methicillin-resistant S. aureus strain, was inoculated into Trypticase Soy Broth (TSB, BBL) and grown in a humidified incubator for 18 hours with rotary shaking at 220 rpm and kept on ice until used.
A quantity of imipenem (Merck Chemical Collection) was weighed out and dissolved into sterile 10 mM MOPS buffer at pH 7. This solution was diluted to 1600 μg/mL, 200 μg/mL, and 25 μg/mL and filter-sterilized through a 0.45 μm filter. From these solutions, seven 1:2 serial dilutions were prepared using sterile 10 mM MOPS buffer at pH 7. The final concentration ranges tested were 128 to 2 μg/mL, 16 to […], and 2 to 0.03 μg/mL. The solutions were kept refrigerated until used.
Test compounds (EXAMPLES 1-67) were prepared in sterile water or DMSO at a concentration of 3.2 mg/mL. From this solution, 11 serial 1:2 dilutions were prepared using sterile water. The final concentration range tested was 64 to 0.0313 μg/mL. The solutions were kept refrigerated until used.
Two-fold serial dilutions of test compounds were tested in the presence and absence of subinhibitory concentrations of imipenem (4 μg/mL) in 96-well U bottom microliter dishes in microbiological growth media. The plates were inoculated with bacterial cells to a final concentration of ˜5×10^5 CFU/mL. Test plates were incubated stationery at 37° C. for 22-24 hours.
After 22 hours of incubation, the Minimum inhibitory concentrations (MICs) were determined, defined as the lowest concentration of antibiotic that prevented all visible growth in the absence of imipenem. Synergistic inhibitory concentrations (SICs) were determined, defined as the lowest concentration of antibiotic that prevented all visible growth in the presence of imipenen.
With `CCCCCCCc1ccc(-c2ccc(C(=O)NCCC(=O)N[C@@H](CCCCN)C(=O)N(C)[C@@H]3C(=O)N[C@@H](C)C(=O)N[C@H](C(=O)O)Cc4ccc(O)c(c4)-c4cc3ccc4O)cc2)cc1` [EXAMPLE 29], the SIC entry is on record as “G (G: SIC <0.0625)”.
The same measure, in the same setting: next, `CCCCCCc1ccc(-c2ccc(C(=O)NCCC(=O)N[C@@H](CCCCN)C(=O)N(C)[C@@H]3C(=O)N[C@@H](C)C(=O)N[C@H](C(=O)O)Cc4ccc(O)c(c4)-c4cc3ccc4O)cc2)cc1` [EXAMPLE 31]: “G (G: SIC <0.0625)”; `CCCCCCCCCc1ccc(-c2ccc(C(=O)NCCC(=O)N[C@@H](CCCCN)C(=O)N(C)[C@@H]3C(=O)N[C@@H](C)C(=O)N[C@H](C(=O)O)Cc4ccc(O)c(c4)-c4cc3ccc4O)nc2)cc1` [EXAMPLE 32]: “G (G: SIC <0.0625)”.
Same read-out and setting: next, `CCCCCCCCCCc1ccc2cc(C(=O)NCCC(=O)N[C@@H](CCCCNC(C)=O)C(=O)N(C)[C@@H]3C(=O)N[C@@H](C)C(=O)N[C@H](C(=O)O)Cc4ccc(O)c(c4)-c4cc3ccc4O)ccc2c1` [EXAMPLE 33]: “G (G: SIC <0.0625)”.
On the same count and under the same terms, next, `CCCCCCCCCc1ccc(-c2ncc(C(=O)NCCC(=O)N[C@@H](CCCCN(C)C)C(=O)N(C)[C@@H]3C(=O)N[C@@H](C)C(=O)N[C@H](C(=O)O)Cc4ccc(O)c(c4)-c4cc3ccc4O)cn2)cc1` [EXAMPLE 34]: “G (G: SIC <0.0625)”.
In the case of `CCCCCc1ccc(-c2ccc(C(=O)NCCC(=O)N[C@@H](CCCCN)C(=O)N(C)[C@@H]3C(=O)N[C@@H](C)C(=O)N[C@H](C(=O)O)Cc4ccc(O)c(c4)-c4cc3ccc4O)cc2)cc1` [EXAMPLE 35], the SIC entry was “G (G: SIC <0.0625)”.
As to `CCCCCCCOCc1ccc(-c2ccc(C(=O)NCCC(=O)N[C@@H](CCCCN)C(=O)N(C)[C@@H]3C(=O)N[C@@H](C)C(=O)N[C@H](C(=O)O)Cc4ccc(O)c(c4)-c4cc3ccc4O)cc2)cc1` [EXAMPLE 36], the SIC entry was “G (G: SIC <0.0625)”.
On the same count and under the same terms, under `CC(C)CCCCCCc1ccc(-c2ccc(C(=O)NCCC(=O)N[C@@H](CCCCN)C(=O)N(C)[C@@H]3C(=O)N[C@@H](C)C(=O)N[C@H](C(=O)O)Cc4ccc(O)c(c4)-c4cc3ccc4O)cc2)cc1` [EXAMPLE 37] stands “G (G: SIC <0.0625)”; under `C[C@@H]1NC(=O)[C@@H](N(C)C(=O)[C@H](CCCCN)NC(=O)CCNC(=O)c2ccc(CCCCCCCc3ccccc3)cc2)c2ccc(O)c(c2)-c2cc(ccc2O)C[C@@H](C(=O)O)NC1=O` [EXAMPLE 38], “G (G: SIC <0.0625)”.
Still for that read-out and setting: next, `CCCCCCCCCc1ccc(-c2ccc(C(=O)NCCC(=O)N[C@@H](CCCCN)C(=O)N(C)[C@@H]3C(=O)N[C@@H](C)C(=O)N[C@H](C(=O)O)Cc4ccc(O)c(c4)-c4cc3ccc4O)c(O)c2)cc1` [EXAMPLE 39]: “G (G: SIC <0.0625)”; `CCCCCCCCCc1ccc(-c2ccc(C(=O)NCCC(=O)N3C[C@H](N)C[C@H]3C(=O)N(C)[C@@H]3C(=O)N[C@@H](C)C(=O)N[C@H](C(=O)O)Cc4ccc(O)c(c4)-c4cc3ccc4O)cc2)cc1` [EXAMPLE 40]: “G (G: SIC <0.0625)”.

Still in this assay, the particulars now being: Staphylococcus aureus, MRSA, 22 h.
On to `CCCCCCCc1ccc(-c2ccc(C(=O)NCCC(=O)N[C@@H](CCCCN)C(=O)N(C)[C@@H]3C(=O)N[C@@H](C)C(=O)N[C@H](C(=O)O)Cc4ccc(O)c(c4)-c4cc3ccc4O)cc2)cc1` [EXAMPLE 29], for which the MIC was less than 1 µg/mL.
As to `CCCCCCc1ccc(-c2ccc(C(=O)NCCC(=O)N[C@@H](CCCCN)C(=O)N(C)[C@@H]3C(=O)N[C@@H](C)C(=O)N[C@H](C(=O)O)Cc4ccc(O)c(c4)-c4cc3ccc4O)cc2)cc1` [EXAMPLE 31], the MIC was less than 1 µg/mL.
On the same count and under the same terms, under `CCCCCCCCCc1ccc(-c2ccc(C(=O)NCCC(=O)N[C@@H](CCCCN)C(=O)N(C)[C@@H]3C(=O)N[C@@H](C)C(=O)N[C@H](C(=O)O)Cc4ccc(O)c(c4)-c4cc3ccc4O)nc2)cc1` [EXAMPLE 32] stands less than 1 µg/mL; under `CCCCCCCCCc1ccc(-c2ncc(C(=O)NCCC(=O)N[C@@H](CCCCN(C)C)C(=O)N(C)[C@@H]3C(=O)N[C@@H](C)C(=O)N[C@H](C(=O)O)Cc4ccc(O)c(c4)-c4cc3ccc4O)cn2)cc1` [EXAMPLE 34], less than 1 µg/mL.
On the same count and under the same terms, next, `CCCCCc1ccc(-c2ccc(C(=O)NCCC(=O)N[C@@H](CCCCN)C(=O)N(C)[C@@H]3C(=O)N[C@@H](C)C(=O)N[C@H](C(=O)O)Cc4ccc(O)c(c4)-c4cc3ccc4O)cc2)cc1` [EXAMPLE 35]: less than 1 µg/mL; `CCCCCCCOCc1ccc(-c2ccc(C(=O)NCCC(=O)N[C@@H](CCCCN)C(=O)N(C)[C@@H]3C(=O)N[C@@H](C)C(=O)N[C@H](C(=O)O)Cc4ccc(O)c(c4)-c4cc3ccc4O)cc2)cc1` [EXAMPLE 36]: less than 1 µg/mL.
Take `CC(C)CCCCCCc1ccc(-c2ccc(C(=O)NCCC(=O)N[C@@H](CCCCN)C(=O)N(C)[C@@H]3C(=O)N[C@@H](C)C(=O)N[C@H](C(=O)O)Cc4ccc(O)c(c4)-c4cc3ccc4O)cc2)cc1` [EXAMPLE 37]: the minimal inhibitory concentration (MIC) was less than 1 µg/mL.
On to `C[C@@H]1NC(=O)[C@@H](N(C)C(=O)[C@H](CCCCN)NC(=O)CCNC(=O)c2ccc(CCCCCCCc3ccccc3)cc2)c2ccc(O)c(c2)-c2cc(ccc2O)C[C@@H](C(=O)O)NC1=O` [EXAMPLE 38], for which the MIC is less than 1 µg/mL.
The same measure, in the same setting: next, `CCCCCCCCCc1ccc(-c2ccc(C(=O)NCCC(=O)N[C@@H](CCCCN)C(=O)N(C)[C@@H]3C(=O)N[C@@H](C)C(=O)N[C@H](C(=O)O)Cc4ccc(O)c(c4)-c4cc3ccc4O)c(O)c2)cc1` [EXAMPLE 39]: less than 1 µg/mL.
On the same count and under the same terms, next, `CCCCCCCCCc1ccc(-c2ccc(C(=O)NCCC(=O)N3C[C@H](N)C[C@H]3C(=O)N(C)[C@@H]3C(=O)N[C@@H](C)C(=O)N[C@H](C(=O)O)Cc4ccc(O)c(c4)-c4cc3ccc4O)cc2)cc1` [EXAMPLE 40]: less than 1 µg/mL.

Still in this assay, the particulars now being: Staphylococcus aureus; MRSA COL, absence of imipenem, 22 hours; read-out: MIC.
As for `CCCCCCCCCCc1ccc2cc(C(=O)NCCC(=O)N[C@@H](CCCCNC(C)=O)C(=O)N(C)[C@@H]3C(=O)N[C@@H](C)C(=O)N[C@H](C(=O)O)Cc4ccc(O)c(c4)-c4cc3ccc4O)ccc2c1` [EXAMPLE 33], the MIC was more than 8 µg/mL.

In the next assay the target is T1, SpsB (Staphylococcus aureus, UniProt P0A070).
T1 construct: using a bacterial membrane fraction as a source of SpsB; from tissue
T1 sequence (P0A070 1-191): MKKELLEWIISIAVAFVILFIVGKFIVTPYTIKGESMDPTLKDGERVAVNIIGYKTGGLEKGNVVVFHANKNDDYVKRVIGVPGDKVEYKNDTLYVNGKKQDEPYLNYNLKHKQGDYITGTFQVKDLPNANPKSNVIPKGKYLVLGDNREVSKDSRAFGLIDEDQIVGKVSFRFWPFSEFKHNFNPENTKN
The experiment in a line: Inhibition of SpsB enzyme activity (fluorescence-based assay, bacterial membrane fraction). In kind it is biochemical.
Details: not given
On the procedure:
Signal peptidase enzyme activity was measured in a fluorescence-based assay using a bacterial membrane fraction as a source of SpsB (See Bruton et al., 2003, Eur J Med Chem 38:351-356). The SpsB substrate is a synthetic lipopeptide, decanoyl-K(DABCYL)-TPTAKA↓ASKKD-D(EDANS)—NH2 (prepared by JPT Peptide Technologies, Berlin, Germany). Assays were performed with 20 μM peptide substrate (Km≈5 μM) and reactions were initiated with enzyme addition (final protein concentration of 0.6 mg/mL). SpsB mediated cleavage of the peptide substrate was detected as an increase in fluorescence (excitation 340 nm/emission 460 nm).
The compound `CCCCCCCc1ccc(-c2ccc(C(=O)NCCC(=O)N[C@@H](CCCCN)C(=O)N(C)[C@@H]3C(=O)N[C@@H](C)C(=O)N[C@H](C(=O)O)Cc4ccc(O)c(c4)-c4cc3ccc4O)cc2)cc1` [EXAMPLE 29] registered an IC50 of less than 10 nM.
`CCCCCCc1ccc(-c2ccc(C(=O)NCCC(=O)N[C@@H](CCCCN)C(=O)N(C)[C@@H]3C(=O)N[C@@H](C)C(=O)N[C@H](C(=O)O)Cc4ccc(O)c(c4)-c4cc3ccc4O)cc2)cc1` [EXAMPLE 31] displayed an IC50 of less than 10 nM.
On to `CCCCCCCCCc1ccc(-c2ccc(C(=O)NCCC(=O)N[C@@H](CCCCN)C(=O)N(C)[C@@H]3C(=O)N[C@@H](C)C(=O)N[C@H](C(=O)O)Cc4ccc(O)c(c4)-c4cc3ccc4O)nc2)cc1` [EXAMPLE 32], for which the IC50 was less than 10 nM.
In the case of `CCCCCCCCCCc1ccc2cc(C(=O)NCCC(=O)N[C@@H](CCCCNC(C)=O)C(=O)N(C)[C@@H]3C(=O)N[C@@H](C)C(=O)N[C@H](C(=O)O)Cc4ccc(O)c(c4)-c4cc3ccc4O)ccc2c1` [EXAMPLE 33], the half-inhibitory concentration (IC50) is less than 10 nM.
The compound `CCCCCCCCCc1ccc(-c2ncc(C(=O)NCCC(=O)N[C@@H](CCCCN(C)C)C(=O)N(C)[C@@H]3C(=O)N[C@@H](C)C(=O)N[C@H](C(=O)O)Cc4ccc(O)c(c4)-c4cc3ccc4O)cn2)cc1` [EXAMPLE 34] returned an IC50 of less than 10 nM.
As for `CCCCCc1ccc(-c2ccc(C(=O)NCCC(=O)N[C@@H](CCCCN)C(=O)N(C)[C@@H]3C(=O)N[C@@H](C)C(=O)N[C@H](C(=O)O)Cc4ccc(O)c(c4)-c4cc3ccc4O)cc2)cc1` [EXAMPLE 35], the half-inhibitory concentration (IC50) is less than 10 nM.
Still for that read-out and setting: under `CCCCCCCOCc1ccc(-c2ccc(C(=O)NCCC(=O)N[C@@H](CCCCN)C(=O)N(C)[C@@H]3C(=O)N[C@@H](C)C(=O)N[C@H](C(=O)O)Cc4ccc(O)c(c4)-c4cc3ccc4O)cc2)cc1` [EXAMPLE 36] stands less than 10 nM; under `CC(C)CCCCCCc1ccc(-c2ccc(C(=O)NCCC(=O)N[C@@H](CCCCN)C(=O)N(C)[C@@H]3C(=O)N[C@@H](C)C(=O)N[C@H](C(=O)O)Cc4ccc(O)c(c4)-c4cc3ccc4O)cc2)cc1` [EXAMPLE 37], less than 10 nM.
The same measure, in the same setting: next, `C[C@@H]1NC(=O)[C@@H](N(C)C(=O)[C@H](CCCCN)NC(=O)CCNC(=O)c2ccc(CCCCCCCc3ccccc3)cc2)c2ccc(O)c(c2)-c2cc(ccc2O)C[C@@H](C(=O)O)NC1=O` [EXAMPLE 38]: less than 10 nM; `CCCCCCCCCc1ccc(-c2ccc(C(=O)NCCC(=O)N[C@@H](CCCCN)C(=O)N(C)[C@@H]3C(=O)N[C@@H](C)C(=O)N[C@H](C(=O)O)Cc4ccc(O)c(c4)-c4cc3ccc4O)c(O)c2)cc1` [EXAMPLE 39]: less than 10 nM; `CCCCCCCCCc1ccc(-c2ccc(C(=O)NCCC(=O)N3C[C@H](N)C[C@H]3C(=O)N(C)[C@@H]3C(=O)N[C@@H](C)C(=O)N[C@H](C(=O)O)Cc4ccc(O)c(c4)-c4cc3ccc4O)cc2)cc1` [EXAMPLE 40]: less than 10 nM.
